pIC50: −log10 of the molar value. Like-named read-outs stand apart in the source and are kept apart here.
Tests used:
MV4;11 cells = test: Cell viability assay (CellTiter-Glo) in MV4;11 cells, alone or with gilteritinib; format: cell-based; settings: Homo sapiens, MV4;11 cells, three days, CellTiter-Glo, read-out: MV4
MOLM-13 cells = test: Cell viability assay (CellTiter-Glo) in MOLM-13 cells, alone or with gilteritinib; format: cell-based; settings: Homo sapiens, MOLM-13 cells, three days, CellTiter-Glo
[1] = MV4-11, 72 h, compound alone (without gilteritinib), 11 IC50
[2] = MV4-11, 72 h, with gilteritinib 10 nM, 11 IC50 gilteritinib
[3] = MOLM-13, 72 h, compound alone (without gilteritinib), read-out: MOLM-13 IC50
[4] = MOLM-13, 72 h, with gilteritinib 20 nM, read-out: MOLM-13 IC50 gilteritinib
[5] = 72 h, compound alone (without gilteritinib), 11 IC50
[6] = 72 h, with gilteritinib 10 nM, 11 IC50 gilteritinib
[7] = 72 h, compound alone (without gilteritinib), read-out: MOLM-13 IC50
[8] = 72 h, with gilteritinib 20 nM, read-out: MOLM-13 IC50 gilteritinib

Row | pIC50 (MV4;11 cells; [1]) | pIC50 (MV4;11 cells; [2]) | pIC50 (MOLM-13 cells; [3]) | pIC50 (MOLM-13 cells; [4]) | Compound | pIC50 (MV4;11 cells; [5]) | pIC50 (MV4;11 cells; [6]) | pIC50 (MOLM-13 cells; [7]) | pIC50 (MOLM-13 cells; [8])
1 | < 6.00 | < 6.00 | < 6.00 | < 6.00 | O=C1CCC(N2Cc3c(Nc4ccnc(NCC(=O)N5CCC(n6cc(-c7cnc8ccccc8n7)cn6)CC5)n4)cccc3C2=O)C(=O)N1 (centres unmarked) [GS-091, 3-(1-Oxo-4-((2-((2-oxo-2-(4-(4-(quinoxalin-2-yl)-1H-pyrazol-1-yl)piperidin-1-yl)ethyl)amino)pyrimidin-4-yl)amino)isoindolin-2-yl)piperidine-2,6-dione] |  |  |  | 
2 | < 6.00 | < 6.00 | < 6.00 | < 6.00 | O=C1CCC(N2Cc3c(Nc4ccnc(NC5CCC(N6CCC(n7cc(-c8cnc9ccccc9n8)cn7)CC6)C5)n4)cccc3C2=O)C(=O)N1 (centres unmarked) [GS-092, 3-(1-Oxo-4-((2-((3-(4-(4-(quinoxalin-2-yl)-1H-pyrazol-1-yl)piperidin-1-yl)cyclopentyl)amino)pyrimidin-4-yl)amino)isoindolin-2-yl)piperidine-2,6-dione] |  |  |  | 
3 | > 8.00 | > 8.00 | > 8.00 | > 8.00 | O=C1CCC(N2Cc3c(csc3CNC(=O)Nc3cccc(N4CCC(n5cc(-c6cnc7ccccc7n6)cn5)CC4)c3)C2=O)C(=O)N1 (centres unmarked) [GS-093, 1-((5-(2,6-Dioxopiperidin-3-yl)-4-oxo-5,6-dihydro-4H-thieno[3,4-c]pyrrol-1-yl)methyl)-3-(3-(4-(4-(quinoxalin-2-yl)-1H-pyrazol-1-yl)piperidin-1-yl)phenyl)urea] |  |  |  | 
4 | < 6.00 | < 6.00 | < 6.00 | < 6.00 | O=C1CCC(N2Cc3c(Nc4ccnc(Nc5cccc(N6CCC(N7CCCCC7)CC6)c5)n4)cccc3C2=O)C(=O)N1 (centres unmarked) [GS-094, 3-(4-((2-((3-([1,4′-Bipiperidin]-1′-yl)phenyl)amino)pyrimidin-4-yl)amino)-1-oxoisoindolin-2-yl)piperidine-2,6-dione] |  |  |  | 
5 |  |  |  |  | O=C1CCC(N2Cc3ccc(CCCCCC(=O)N4CCC(c5ccccc5)CC4)cc3C2=O)C(=O)N1 (centres unmarked) [GS-095, 3-(1-Oxo-6-(6-oxo-6-(4-phenylpiperidin-1-yl)hexyl)isoindolin-2-yl)piperidine-2,6-dione] | 6.00 to 7.00 | 7.00 to 8.00 | 6.00 to 7.00 | 7.00 to 8.00
6 |  |  |  |  | O=C1CCC(N2Cc3ccc(CCCCCCC(=O)N4CCN(c5ccccn5)CC4)cc3C2=O)C(=O)N1 (centres unmarked) [GS-096, 3-(1-Oxo-6-(7-oxo-7-(4-(pyridin-2-yl)piperazin-1-yl)heptyl)isoindolin-2-yl)piperidine-2,6-dione] | 7.00 to 8.00 | > 8.00 | 6.00 to 7.00 | > 8.00
7 | 7.00 to 8.00 | > 8.00 | 7.00 to 8.00 | > 8.00 | O=C1CCC(N2Cc3ccc(CCCCCCC(=O)N4CCC(n5cc(-c6cnc7ccccc7n6)cn5)CC4)cc3C2=O)C(=O)N1 (centres unmarked) [GS-097, 3-(1-Oxo-6-(7-oxo-7-(4-(4-(quinoxalin-2-yl)-1H-pyrazol-1-yl)piperidin-1-yl)heptyl)isoindolin-2-yl)piperidine-2,6-dione] |  |  |  | 
8 | 7.00 to 8.00 | 7.00 to 8.00 | 6.00 to 7.00 | > 8.00 | O=C1CCC(N2Cc3ccc(CCCCCCC(=O)N4CCC(n5cc(-c6ccc7ccccc7n6)cn5)CC4)cc3C2=O)C(=O)N1 (centres unmarked) [GS-098, 3-(1-Oxo-6-(7-oxo-7-(4-(4-(quinolin-2-yl)-1H-pyrazol-1-yl)piperidin-1-yl)heptyl)isoindolin-2-yl)piperidine-2,6-dione] |  |  |  | 
9 |  |  |  |  | O=C1CCC(N2Cc3ccc(CCCCCCC(=O)N4CCC(c5ccccc5)CC4)cc3C2=O)C(=O)N1 (centres unmarked) [GS-099, 3-(1-Oxo-6-(7-oxo-7-(4-phenylpiperidin-1-yl)heptyl)isoindolin-2-yl)piperidine-2,6-dione] | 6.00 to 7.00 | 7.00 to 8.00 | 6.00 to 7.00 | 7.00 to 8.00
10 | < 6.00 | < 6.00 | < 6.00 | 6.00 to 7.00 | O=C1CCC(N2C(=O)c3ccc(NCCC4CCC(n5cc(-c6cnc7ccccc7n6)cn5)CC4)cc3C2=O)C(=O)N1 (centres unmarked) [GS-100, 2-(2,6-Dioxopiperidin-3-yl)-5-((2-(4-(4-(quinoxalin-2-yl)-1H-pyrazol-1-yl)cyclohexyl)ethyl)amino)isoindoline-1,3-dione] |  |  |  | 
11 | > 8.00 | > 8.00 | 7.00 to 8.00 | > 8.00 | O=C1CCC(N2Cc3ccc(CCCCCC(=O)N4CCC(n5cc(-c6cnc7ccccc7n6)cn5)CC4)cc3C2=O)C(=O)N1 (centres unmarked) [GS-101, 3-(1-Oxo-6-(6-oxo-6-(4-(4-(quinoxalin-2-yl)-1H-pyrazol-1-yl)piperidin-1-yl)hexyl)isoindolin-2-yl)piperidine-2,6-dione] |  |  |  | 
12 | 7.00 to 8.00 | > 8.00 | 6.00 to 7.00 | 7.00 to 8.00 | O=C1CCC(N2Cc3ccc(CCCCCC(=O)N4CCC(n5cc(-c6ccc7ccccc7n6)cn5)CC4)cc3C2=O)C(=O)N1 (centres unmarked) [GS-102, 3-(1-Oxo-6-(6-oxo-6-(4-(4-(quinolin-2-yl)-1H-pyrazol-1-yl)piperidin-1-yl)hexyl)isoindolin-2-yl)piperidine-2,6-dione] |  |  |  | 
13 |  |  |  |  | O=C1CCC(N2Cc3ccc(CCCCCC(=O)N4CCN(c5ccccn5)CC4)cc3C2=O)C(=O)N1 (centres unmarked) [GS-103, 3-(1-Oxo-6-(6-oxo-6-(4-(pyridin-2-yl)piperazin-1-yl)hexyl)isoindolin-2-yl)piperidine-2,6-dione] | < 6.00 | 6.00 to 7.00 | < 6.00 | 6.00 to 7.00
14 | 6.00 to 7.00 | 6.00 to 7.00 | < 6.00 | 6.00 to 7.00 | O=C1CCC(N2Cc3ccc(CCCCCC(=O)N4CCC(c5ccccn5)CC4)cc3C2=O)C(=O)N1 (centres unmarked) [GS-104, 3-(1-Oxo-6-(6-oxo-6-(4-(pyridin-2-yl)piperidin-1-yl)hexyl)isoindolin-2-yl)piperidine-2,6-dione] |  |  |  | 
15 | 7.00 to 8.00 | 7.00 to 8.00 | 7.00 to 8.00 | > 8.00 | O=C1CCC(N2Cc3ccc(CCCCCCCn4cc(-c5cnc6ccccc6n5)cn4)cc3C2=O)C(=O)N1 (centres unmarked) [GS-105, 3-(1-Oxo-6-(7-(4-(quinoxalin-2-yl)-1H-pyrazol-1-yl)heptyl)isoindolin-2-yl)piperidine-2,6-dione] |  |  |  | 
16 | 6.00 to 7.00 | 7.00 to 8.00 | < 6.00 | 7.00 to 8.00 | O=C1CCC(N2Cc3ccc(CCCCCCn4cc(-c5cnc6ccccc6n5)cn4)cc3C2=O)C(=O)N1 (centres unmarked) [GS-106, 3-(1-Oxo-6-(6-(4-(quinoxalin-2-yl)-1H-pyrazol-1-yl)hexyl)isoindolin-2-yl)piperidine-2,6-dione] |  |  |  | 
17 | 6.00 to 7.00 | 7.00 to 8.00 | < 6.00 | 7.00 to 8.00 | O=C1CCC(N2C(=O)c3ccc(NCCCC4CC(n5cc(-c6cnc7ccccc7n6)cn5)C4)cc3C2=O)C(=O)N1 (centres unmarked) [GS-107, 2-(2,6-Dioxopiperidin-3-yl)-5-((3-(3-(4-(quinoxalin-2-yl)-1H-pyrazol-1-yl)cyclobutyl)propyl)amino)isoindoline-1,3-dione] |  |  |  | 
18 | < 6.00 | 6.00 to 7.00 | < 6.00 | 7.00 to 8.00 | O=C1CCC(N2Cc3c(OCc4ccc(CN5CCC(n6cc(-c7cnc8ccccc8n7)cn6)CC5)cc4)cccc3C2=O)C(=O)N1 (centres unmarked) [GS-108, 3-(1-Oxo-4-((4-((4-(4-(quinoxalin-2-yl)-1H-pyrazol-1-yl)piperidin-1-yl)methyl)benzyl)oxy)isoindolin-2-yl)piperidine-2,6-dione] |  |  |  | 
19 | 6.00 to 7.00 | 6.00 to 7.00 | < 6.00 | 6.00 to 7.00 | O=C(CC1CC1n1cc(-c2cnc3ccccc3n2)cn1)NCc1ccc2c(c1)CN(C1CCC(=O)NC1=O)C2=O (centres unmarked) [GS-109, N-((2-(2,6-Dioxopiperidin-3-yl)-1-oxoisoindolin-5-yl)methyl)-2-(2-(4-(quinoxalin-2-yl)-1H-pyrazol-1-yl)cyclopropyl)acetamide] |  |  |  | 
20 | > 8.00 | > 8.00 | 7.00 to 8.00 | > 8.00 | O=C1CCC(N2Cc3c(NC4CCCC(Nc5cccc(N6CCC(n7cc(-c8cnc9ccccc9n8)cn7)CC6)c5)C4)cccc3C2=O)C(=O)N1 (centres unmarked) [GS-110, 3-(1-Oxo-4-((3-((3-(4-(4-(quinoxalin-2-yl)-1H-pyrazol-1-yl)piperidin-1-yl)phenyl)amino)cyclohexyl)amino)isoindolin-2-yl)piperidine-2,6-dione] |  |  |  | 
21 | 6.00 to 7.00 | 7.00 to 8.00 | < 6.00 | 6.00 to 7.00 | O=C1CCC(N2Cc3ccc(CCCCCCC(=O)N4CCC(c5ccccn5)CC4)cc3C2=O)C(=O)N1 (centres unmarked) [GS-111, 3-(1-Oxo-6-(7-oxo-7-(4-(pyridin-2-yl)piperidin-1-yl)heptyl)isoindolin-2-yl)piperidine-2,6-dione] |  |  |  | 
22 | < 6.00 | 6.00 to 7.00 | < 6.00 | 6.00 to 7.00 | O=C1CCC(N2C(=O)c3ccc(NCCCC4CCCC(n5cc(-c6cnc7ccccc7n6)cn5)C4)cc3C2=O)C(=O)N1 (centres unmarked) [GS-112, 2-(2,6-Dioxopiperidin-3-yl)-5-((3-(3-(4-(quinoxalin-2-yl)-1H-pyrazol-1-yl)cyclohexyl)propyl)amino)isoindoline-1,3-dione] |  |  |  | 
23 | 7.00 to 8.00 | > 8.00 | < 6.00 | 7.00 to 8.00 | O=C1CCC(N2Cc3ccc(CCCCCC(=O)N4CCC(c5cccc(Cl)c5)CC4)cc3C2=O)C(=O)N1 (centres unmarked) [GS-113, 3-(6-(6-(4-(3-Chlorophenyl)piperidin-1-yl)-6-oxohexyl)-1-oxoisoindolin-2-yl)piperidine-2,6-dione] |  |  |  | 

From patent publication US20240050428A1 (Cullgen (Shanghai), Inc., priority 2020, published 2024)
